Assay results as given in PMC5827777, “Synthesis and biological evaluation of RGD and isoDGR peptidomimetic-α-amanitin conjugates for tumor-targeting” (Beilstein Journal of Organic Chemistry, 2018).
Like-named read-outs stand apart in the source and are kept apart here.

Key:
[1] = system: A549 cells (human lung carcinoma, αVβ3−); assay: cells; format: cell-based; details: 96 hours treatment; triplicate; read-out: IC50 A549 (αVβ3−), inhibition of cell viability
Experimental: The cell lines were treated with different concentrations of the free drug α-amanitin and conjugates 7–11 for 96 hours. […]
described recently.[S1] The SNP profiles matched known profiles or were unique. The purity of the cell lines was validated using the Multiplex cell Contamination Test by Multiplexion (Heidelberg, Germany) as described recently.[S2] No mycoplasma, SMRV or interspecies contamination was detected. U87-MG, MDA-MB 468 and A549 cells were cultivated continuously for not more than 3 months in MEM Eagle´s, DMEM or Ham´s F12 medium, respectively, supplemented with 10% heat inactivated fetus calf serum, L-glutamine and antibiotics. Cell lines were maintained at 37 °C and 5% CO2 in a high humidity atmosphere.
(§1) Cell therapy and viability assay
Cell viability assays were performed in U87-MG, A549 and MDA-MB 468 cell lines according to the following procedure: 2 × 10^3 cells/well were plated in 96-well black clear bottom plates (Perkin Elmer) and incubated overnight. 1:5 serial dilutions of compounds 7–11 were prepared in cell culture media. The compounds were added to the cell culture and incubated for additional 96 h. Starting concentration of compounds 7–11 in the wells was 1 × 10−5 M and cell viability was determined with the CellTiterGlo 2.0 assay (Promega) in accordance to manufacturer’s instructions. The cell viability was calculated in relation to the non-treated controls for each cell line. All samples were measured in triplicate. Data analysis was carried out using software GraphPad Prism (GraphPad Software Inc., La Jolla, CA, USA). […]

[2] = system: U87 (αVβ3+, αVβ5+, αVβ6−, α5β1+); details: read-out: IC50 U87, inhibition of cell viability, 96 hours
From the text: (§2) However, it should be noted that these cell lines overexpress other integrins (α5β1 in U87, αVβ6 in MDA-MB-468, and αVβ5 in both). […]
(§3) described recently.[S1] […] The purity of […]
(§4) the cell lines was validated using the Multiplex cell Contamination Test by Multiplexion (Heidelberg, Germany) as described recently.[S2]
(§5) U87-MG, MDA-MB 468 and A549 cells were cultivated continuously for not more than 3 months in MEM Eagle´s, DMEM or Ham´s F12 medium, respectively, supplemented with 10% heat inactivated fetus calf serum, L-glutamine and antibiotics. Cell lines were maintained at 37 °C and 5% CO2 in a high humidity atmosphere.
as §1
(§6) Cell viability assays were performed in U87-MG, A549 and MDA-MB 468 cell lines according to the following procedure: 2 × 10^3 cells/well were plated in 96-well black clear bottom plates (Perkin Elmer) and incubated overnight. […]
(§7) in cell culture media. The compounds were added to the cell culture and incubated for additional […]
(§8) was determined with the CellTiterGlo 2.0 assay (Promega) in accordance to manufacturer’s instructions. The cell viability was calculated in relation to the non-treated controls for each cell line. All samples were measured in triplicate.
(§9) All samples were measured in triplicate.

[3] = system: MDA-MB-468 (αVβ3−, αVβ5+, αVβ6+, α5β1−); details: read-out: IC50 MDA-MB-468, inhibition of cell viability, 96 hours
From the text: as §2, §3, §4, §5, §1, §6, §7, §8, §9

[4] = target: T1, Recombinant human integrin αVβ3 (Homo sapiens, UniProt P05106+P06756); assay: Inhibition of biotinylated vitronectin binding to purified αVβ3 receptor (solid phase receptor binding assay); details: conjugates, Table 2; mean ± SD of triplicate determinations
T1 construct: purchased R&D Systems, Minneapolis, MN, USA
Experimental: Conjugates 7–11 were evaluated for their ability to inhibit biotinylated vitronectin binding to the purified αVβ3 receptor. Screening assays were performed by incubating the immobilized integrin receptor with solutions of the cyclo[DKP-RGD]-α-amanitin and cyclo[DKP-isoDGR]-α-amanitin conjugates 7–11 at different concentrations (10^−12 to 10^−5 M) in the presence of biotinylated vitronectin (1 µg mL^−1) and measuring bound vitronectin. […]
to assist the dissolution). The solution obtained was filtered (polypropylene, 0.45 μm, 13 mm ø, PK/100) and injected in the HPLC, affording purified products. Purity analyses were carried on a Dionex Ultimate 3000 instrument equipped with a Dionex RS Variable Wavelenght detector (column: Atlantis® Prep T3 OBDTM 5 μm 19 × 100 mm). The analyte (1 mg) was dissolved in 1 mL of H2O and was injected using the same gradient used in the purification step. The analysis of the integrals and the relative percentage of purity were performed with the software Chromeleon 6.80 SR11 Build 3161. Also, preparative HPLC LaPrep∑ equipped with autosampler AS3950 and a Phenomenex Luna C-18(2) column, 10 µm, 250 × 21.2 mm, with precolumn at 30 mL/min flow rate and analytical HPLC performed on Hitachi Chromaster (column oven Chromaster 5310, pump Chromaster 5110, autosampler Chromaster 5210, DAD Chromaster 5430) equipped with a Phenomenex Luna C-18(2) column, 10 µm, 250 × 4.6 mm, with precolumn at 1.4 mL/min flow rate were used. Freeze-drying: The product was dissolved in water and frozen with dry ice. The freeze-drying was carried out at least for 48 h at −50 °C using the instrument 5Pascal Lio5P DGT.
Solid phase receptor binding assays
Recombinant human integrin αVβ3 (R&D Systems, Minneapolis, MN, USA) was diluted to 0.5 µg/mL in coating buffer containing 20 mM Tris-HCl (pH 7.4), 150 mM NaCl, 1 mM MnCl2, 2 mM CaCl2, and 1 mM MgCl2. […] Absorbance at 415 nm was read in a SynergyTM HT Multi-Detection Microplate Reader (BioTek Instruments, Inc.). […]

[5] = + 50-fold excess of cilengitide

T1 sequence (P06756 31-992 limits assumed): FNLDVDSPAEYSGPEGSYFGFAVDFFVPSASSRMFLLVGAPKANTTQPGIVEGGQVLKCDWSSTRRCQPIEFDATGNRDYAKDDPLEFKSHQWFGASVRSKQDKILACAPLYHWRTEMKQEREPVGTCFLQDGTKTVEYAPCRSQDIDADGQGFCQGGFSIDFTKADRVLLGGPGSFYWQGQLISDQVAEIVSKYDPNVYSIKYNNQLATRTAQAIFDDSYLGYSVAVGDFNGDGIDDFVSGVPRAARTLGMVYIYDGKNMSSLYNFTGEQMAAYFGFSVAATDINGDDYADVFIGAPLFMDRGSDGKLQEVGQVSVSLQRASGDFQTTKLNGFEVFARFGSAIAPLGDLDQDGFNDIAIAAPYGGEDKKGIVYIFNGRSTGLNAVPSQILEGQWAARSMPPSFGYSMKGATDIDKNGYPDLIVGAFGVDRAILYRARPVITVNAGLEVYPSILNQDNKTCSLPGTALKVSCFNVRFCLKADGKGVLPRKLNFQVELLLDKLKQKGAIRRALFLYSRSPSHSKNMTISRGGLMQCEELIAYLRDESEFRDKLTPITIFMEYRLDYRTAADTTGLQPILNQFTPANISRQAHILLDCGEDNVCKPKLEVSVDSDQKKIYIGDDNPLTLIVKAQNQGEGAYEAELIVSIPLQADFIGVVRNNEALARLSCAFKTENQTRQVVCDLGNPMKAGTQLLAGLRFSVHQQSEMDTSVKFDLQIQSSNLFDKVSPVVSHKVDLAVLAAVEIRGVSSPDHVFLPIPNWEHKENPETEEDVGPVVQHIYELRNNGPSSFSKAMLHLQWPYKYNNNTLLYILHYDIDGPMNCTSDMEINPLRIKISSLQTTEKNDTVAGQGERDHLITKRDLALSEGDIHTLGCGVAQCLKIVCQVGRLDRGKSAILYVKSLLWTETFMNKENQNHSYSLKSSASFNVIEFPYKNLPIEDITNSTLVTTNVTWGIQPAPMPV
T1 sequence (P05106 27-718 limits assumed): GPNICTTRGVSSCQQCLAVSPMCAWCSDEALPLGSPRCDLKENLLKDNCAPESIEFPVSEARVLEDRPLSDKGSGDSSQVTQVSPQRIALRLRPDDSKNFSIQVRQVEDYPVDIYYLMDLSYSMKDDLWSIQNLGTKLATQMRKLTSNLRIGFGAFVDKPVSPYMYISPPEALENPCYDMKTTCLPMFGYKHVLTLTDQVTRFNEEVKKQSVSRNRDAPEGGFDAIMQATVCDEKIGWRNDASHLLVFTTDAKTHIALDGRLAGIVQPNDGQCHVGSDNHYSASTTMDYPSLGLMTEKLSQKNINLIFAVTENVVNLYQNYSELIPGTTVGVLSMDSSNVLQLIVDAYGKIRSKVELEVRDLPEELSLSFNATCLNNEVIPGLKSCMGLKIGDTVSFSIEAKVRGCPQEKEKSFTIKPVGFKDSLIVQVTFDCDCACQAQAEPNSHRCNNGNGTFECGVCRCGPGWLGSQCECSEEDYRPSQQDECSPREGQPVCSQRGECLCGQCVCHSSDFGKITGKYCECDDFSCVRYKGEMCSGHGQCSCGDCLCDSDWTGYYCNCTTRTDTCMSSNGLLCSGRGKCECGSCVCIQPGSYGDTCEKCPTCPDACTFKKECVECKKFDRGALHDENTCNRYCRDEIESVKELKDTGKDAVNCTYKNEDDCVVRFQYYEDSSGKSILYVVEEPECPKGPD

Work on `CC[C@H](C)[C@@H]1NC(=O)CNC(=O)[C@@H]2Cc3c([nH]c4cc(OCc5ccc(NC(=O)[C@H](C)NC(=O)[C@@H](NC(=O)CCCC(=O)NCc6ccc(CN7C(=O)[C@H]8CC(=O)N[C@H](C(=O)O)CC(=O)NCC(=O)N[C@@H](CCCNC(=N)N)C(=O)NC[C@H]7C(=O)N8)cc6)C(C)C)cc5)ccc34)[S@+]([O-])C[C@H](NC(=O)CNC1=O)C(=O)N[C@@H](CC(N)=O)C(=O)N1C[C@H](O)C[C@H]1C(=O)N[C@@H]([C@@H](C)[C@@H](O)CO)C(=O)N2` [Compound 10, cyclo[DKP-isoDGR]-Val-Ala-α-amanitin] yielded an IC50 [1] of 217 ± 98.3 nM, an IC50 [2, 5] of 106 ± 11.6 nM and an IC50 ([2]; without cilengitide) of 107 ± 26.8 nM. For the same molecule, the IC50 [3, 5] was 259 ± 55.2 nM, the IC50 ([3]; without cilengitide) was 47 ± 21.1 nM and the IC50 [4] was 6.4 ± 1.9 nM.
